From PubChem BioAssay (NCI) come the findings set out here.

Experiment in all cases: growth of human tumour cells (NCI), 48 h
Test [1] concerns DU-145 prostate.
Test [2] deals with PC-3 prostate.
The subject of test [3] is OVCAR-8 ovarian.
In test [4] the test system is SK-OV-3 ovarian.
The test system of test [5] is RPMI-8226 leukemia.
Test [6] relates to SN12C renal.
The test system of test [7] is SNB-75 CNS.
For test [8], the system named is MOLT-4 leukemia.

The structures appear in SMILES notation.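 96-well plates; 48 h exposure; 5 concentrations. Endpoints by linear interpolation between flanking doses. Not reached: highest tested concentration assigned. Here, GI50 denotes the concentration required for 50% inhibition of growth. TGI: total growth inhibition.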

As for `COc1ccc(/C=C2\CC(C)CC3C2=NN(C(C)=O)C3c2ccc(OC)cc2)cc1` (configuration not stated), the GI50 in test [1] is 25.7 µM; in test [2] it was 24.2 µM; in test [3] it was 28.1 µM; in test [4], 28.7 µM; in test [5], 10.9 µM; in test [6], 18.4 µM. In addition, the values for the GI50 in test [7] and in test [8] were 17.7 µM and 16.1 µM, respectively. Moreover, the TGI in test [1] was 78.1 µM; in test [2] it was > 100 µM; in test [3], > 100 µM; in test [4], > 100 µM; in test [5] it was 53.2 µM; in test [6] it was 38.7 µM. For the same molecule, the TGI in test [7] was 53.3 µM; in test [8], 50.1 µM.

Turning to `Cc1cc(O)c(C2=NN(c3ccc(S(N)(=O)=O)cc3)C(c3ccc(N(C)C)cc3)C2)c(C)c1Cl` (configuration not stated), the GI50 is 19.2 µM in test [1]; 9.21 µM in test [2]; 27.3 µM in test [3]; 27.4 µM in test [4]; 7.25 µM in test [5]; 9.62 µM in test [6]. Also, the GI50 in test [7] was 17 µM; in test [8], 12.7 µM. The TGI in test [1] was 38.4 µM; in test [2], 23.9 µM; in test [3] it was > 100 µM; in test [4], 90.8 µM; in test [5] it was 37.5 µM; in test [6], 25 µM. Besides, the TGI turned out to be 42.2 µM in test [7] and 43.2 µM in test [8].

Consider `COC1=CC23CCCN2CCc2cc4c(cc2C3C1O)OCO4` (configuration not stated), for which the TGI in test [1], in test [2], in test [3], in test [4], in test [6] and in test [7] was > 100 µM each time. Moreover, in test [8], the TGI was > 100 µM.

As to `CN(C)CCSc1cccc(-c2cc(-c3cccc(SCCN(C)C)c3)nc(SCCN(C)C)n2)c1`, the TGI amounted to 2.78 µM in test [3]; 45.5 µM in test [4]; 24.7 µM in test [6]; 12.1 µM in test [7]; 4.66 µM in test [8].

Regarding `O=C(O)c1cc2ccccc2oc1=O`, the TGI in test [1], in test [2], in test [3], in test [5], in test [6] and in test [7] was > 100 µM throughout. Moreover, the TGI in test [8] is > 100 µM.

Consider `CCN(CC)c1ccc2c(c1)Oc1nc(N)c(C#N)c(N)c1C2Sc1ccc(OC)cc1` (configuration not stated), for which the GI50 in test [1] is 1.82 µM; in test [2] it was 1.71 µM; in test [3] it was 1.87 µM; in test [4], 1.92 µM; in test [5], 1.96 µM; in test [7], 1.51 µM. Further, the GI50 in test [8] was 2.37 µM. Also, the TGI in test [1] was found to be 3.25 µM; in test [2], 3.38 µM; in test [3], 3.76 µM; in test [4], 3.38 µM; in test [5] it was 5.02 µM; in test [7], 2.89 µM. This molecule also gave a TGI in test [8] of 6.21 µM.

As for `O=c1c(O)cccc2cc(O)c(O)c(O)c12`, the GI50 in test [1] was 18.8 µM; in test [2], 54.1 µM; in test [3] it was 27.3 µM; in test [4], > 100 µM; in test [5] it was 6.77 µM; in test [6], 57.4 µM. For the same molecule, in test [8], the GI50 is 16.9 µM. The TGI in test [1], in test [2], in test [3], in test [4], in test [5] and in test [6] was > 100 µM throughout. In addition, in test [8], the TGI was > 100 µM.

Take `CCN1C2=NCCN2S(=O)(=O)c2ccccc21`: the TGI in test [1], in test [2], in test [3], in test [4], in test [6] and in test [8] was > 100 µM in each case.

Turning to `Cc1cc2cn3c4ccc(O)cc4[nH]c(=O)c3c2cc1C`, the GI50 in test [1] is 0.0285 µM; in test [2], 0.0542 µM; in test [3] it was 0.0359 µM; in test [4] it was 0.0293 µM; in test [5], 0.252 µM. Further, the TGI in test [1] came out at 0.315 µM; in test [2] it was 1.7 µM; in test [3], 1.31 µM; in test [4], 0.298 µM; in test [5], 3.28 µM.

Take `COc1cc2c3c(n(CCCNCCCNCCCNCCCN)c(=O)c2cc1OC)-c1cc2c(cc1C3=O)OCO2`: the GI50 was 1.42 µM in test [1]; 3.31 µM in test [2]; 2.19 µM in test [3]; 8.52 µM in test [4]; 1.56 µM in test [6]; 2.98 µM in test [7]. For the same molecule, the GI50 in test [8] was 0.369 µM. Moreover, the TGI in test [1] is 4.19 µM; in test [2], 14.8 µM; in test [3], 10.8 µM; in test [4], > 100 µM; in test [6], 9.35 µM; in test [7] it was 13.6 µM. The molecule also registered a TGI in test [8] of 2.57 µM.

For the molecule `CCN(CC)CCCC(C)Nc1nc(C)cc(Nc2ccc3nc(C)cc(N)c3c2)n1` (configuration not stated), the GI50 in test [1] is 42.4 µM; in test [2], 12.4 µM; in test [3], 84.5 µM; in test [4], > 100 µM; in test [5], 4.52 µM; in test [6] it was 37 µM. Further, the GI50 in test [7] is 19.8 µM. Besides, the TGI in test [1] is > 100 µM; in test [2], 37.8 µM; in test [3], > 100 µM; in test [4], > 100 µM; in test [5], 23 µM; in test [6] it was > 100 µM. For the same molecule, the TGI in test [7] was > 100 µM.

Take `Cc1cc(Nc2c3ccccc3nc3ccccc23)ccc1NS(C)(=O)=O`: the GI50 in test [1] is 4.87 µM; in test [3] it was 3.41 µM; in test [4], 6.28 µM; in test [5], 3.02 µM; in test [6], 3.78 µM; in test [7], 5.11 µM. Further, in test [8], the GI50 is 3.28 µM. Besides, the TGI turned out to be 19.9 µM in test [1]; 21.7 µM in test [3]; 20.1 µM in test [4]; 11.2 µM in test [5]; 20.8 µM in test [6]; 19.9 µM in test [7]. This molecule also returned a TGI in test [8] of 9.61 µM.

On to `CC#C/C(=N\OC[C@H]1COCCN1)c1ccc2ncnc(Nc3ccc(OCc4cccc(F)c4)c(Cl)c3)c2c1`, for which the GI50 in test [1] is 1.1 µM; in test [2], 1.81 µM; in test [3], 1.76 µM; in test [4] it was 0.0176 µM; in test [5], 1.66 µM; in test [7] it was 1.46 µM. Further, in test [8], the GI50 is 1.8 µM. Further, the TGI in test [1] came out at 2.36 µM; in test [2], 3.98 µM; in test [3], 4.27 µM; in test [4] it was 1.35 µM; in test [5], 3.81 µM; in test [7] it was 2.82 µM. Moreover, the TGI in test [8] came out at 3.91 µM.

`CCCCCCCCCCCCCCCC[N+](C)(CCO)Cc1cnc[nH]1` (configuration not stated): the GI50 in test [1] is 1.23 µM; in test [2] it was 0.441 µM; in test [4] it was 1.5 µM; in test [6] it was 1.45 µM; in test [7], 1.11 µM. The TGI in test [1] is 4.2 µM; in test [2], 2.37 µM; in test [4], 5.22 µM; in test [6], 6.31 µM; in test [7] it was 5.86 µM.

In the case of `O=Cc1ccc(-c2ccc(-c3nc4ccccc4o3)cc2)s1`, the GI50 is 26.3 µM in test [1]; > 100 µM in test [2]; 35 µM in test [3]; 30.8 µM in test [4]; 29.4 µM in test [6]; 21.6 µM in test [8]. Further, the TGI is > 100 µM in test [1]; > 100 µM in test [2]; > 100 µM in test [3]; 99.5 µM in test [4]; 81.3 µM in test [6]; > 100 µM in test [8].

For `C=C1c2[nH]c3ccccc3c2C2C(CC)C1CCN2C` (configuration not stated), the TGI in test [1] was > 100 µM; in test [2] it was > 100 µM; in test [3] it was > 100 µM; in test [4], > 100 µM; in test [5] it was 88.8 µM; in test [6], > 100 µM. Moreover, in test [8], the TGI was > 100 µM.

Consider `Cc1[nH]c2ccccc2c1-c1cc(-c2cc(-c3c(C)[nH]c4ccccc34)nc(N)n2)nc(N)n1`, for which the TGI in test [2], in test [3], in test [4], in test [5], in test [6] and in test [8] was > 100 µM throughout.

`COC(=O)NC1(NC(=O)OC)NC(=O)c2cc(OC)c(OC)c(OC)c2N1`: the TGI was > 100 µM in test [1]; 72.3 µM in test [2]; > 100 µM in test [3]; > 100 µM in test [4]; > 100 µM in test [6]; 38.8 µM in test [7]. Moreover, the TGI in test [8] was > 100 µM.

Take `O=C(/C=C/C=C/c1c(C2CC2)nc2ccccc2c1-c1ccc(F)cc1)c1cccs1`: the GI50 in test [1] is 2.46 µM; in test [2], 3.99 µM; in test [3], 3.58 µM; in test [4] it was 9.44 µM; in test [6], 2.25 µM; in test [7], > 100 µM. The GI50 in test [8] is 1 µM. For the same molecule, the TGI in test [1], in test [2], in test [3], in test [4], in test [6] and in test [7] was > 100 µM each time. Besides, the TGI in test [8] is > 100 µM.
